Among the data in patent publication US12378243B2, “Quinoline compounds as inhibitors of KRAS” (Incyte Corporation, priority 2021, dated 2025) are IC50 and Caco-2 values, retold here.

The target of one data set is KRAS G12V mutant (Homo sapiens, UniProt P01116, G12V). Description: GDP-GTP exchange assay, KRAS G12V. In kind it is biochemical. The note with it: bodipy loaded KRAS G12V 2.5 nM; 3 hours incubation after adding GppNHp-SOS1 mixture; read-out: G12V_exchange.
Another data set concerns the target KRAS G12D (Homo sapiens, UniProt P01116, G12D). Description: GDP-GTP exchange assay, KRAS G12D. In kind it is biochemical. The note with it: bodipy-loaded KRAS G12D 2.5 nM, GppNHp 500 uM, SOS1 150 nM; 4 hours pre-incubation, 2 hours incubation; read-out: G12D_exchange. How it is done: Inhibitors were serially diluted in DMSO and a volume of 0.1 μL was transferred to the wells of a black low volume 384-well plate. […] The exchange was initiated by the addition of a 5 μL/well volume containing 1 mM GppNHp and 300 nM SOS1 in assay buffer. […] The reaction plates were incubated at ambient temperature for 2 hours, a time estimated for complete GDP-GTP exchange in the absence of inhibitor.
Either GraphPad prism or Genedata Screener SmartFit was used to analyze the data. The IC50 values were derived by fitting the data to a four parameter logistic equation producing a sigmoidal dose-response curve with a variable Hill coefficient.
“NA” indicates IC50 not available.

In another data set the test system is Caco-2 cells. Description: Caco2 assay (permeability, A-B). As to conditions: Papp absorptive direction (A-B), test compound 50 μM, 120 minutes at 37° C. It counts as in vitro ADME. How it is done:
Caco-2 cells are grown at 37° C. in an atmosphere of 5% CO2 in DMEM growth medium supplemented with 10% (v/v) fetal bovine serum, 1% (v/v) nonessential amino acids, penicillin (100 U/mL), and streptomycin (100 μg/mL). Confluent cell monolayers are subcultured every 7 days or 4 days for Caco-2 by treatment with 0.05% trypsin containing […]. Caco-2 cells are seeded in 96-well Transwell plates. The seeding density for Caco-2 cells is 14,000 cells/well. DMEM growth medium is replaced every other day after seeding. Cell monolayers are used for transport assays between 22 and 25 days for Caco-2 cells.
Cell culture medium is removed and replaced with HBSS. To measure the TEER, the HBSS is added into the donor compartment (apical side) and receiver compartment (basolateral side). The TEER is measured by using a REMS Autosampler to ensure the integrity of the cell monolayers. Caco-2 cell monolayers with TEER values ≥300 Ω·cm^2 are used for transport experiments. To determine the Papp in the absorptive direction (A-B), solution of test compound (50 μM) in HBSS is added to the donor compartment (apical side), while HBSS solution with 4% BSA is added to the receiver compartment (basolateral side). The apical volume was 0.075 mL, and the basolateral volume is 0.25 mL. The incubation period is 120 minutes at 37° C. in an atmosphere of 5% CO2. At the end of the incubation period, samples from the donor and receiver sides are removed and an equal volume of acetonitrile is added for protein precipitation. The supernatants are collected after centrifugation (3000 rpm, Allegra X-14R Centrifuge from Beckman Coulter, Indianapolis, IN) for LCMS analysis. The permeability value is determined according to the equation:
[formula] • where the flux rate (F, mass/time) is calculated from the slope of cumulative amounts of compound of interest on the receiver side, SA is the surface area of the cell membrane, VD is the donor volume, and MD is the initial amount of the solution in the donor chamber.
The symbol “+” indicates a Caco-2 value of […], “++” indicates a Caco-2 value of >0.5 but ≤1; and “+++” indicates a Caco-2 value of >1. “NA” indicates IC50 not available.

Chain of KRAS G12V mutant (P01116 1-188 isoform P01116-2 G12V): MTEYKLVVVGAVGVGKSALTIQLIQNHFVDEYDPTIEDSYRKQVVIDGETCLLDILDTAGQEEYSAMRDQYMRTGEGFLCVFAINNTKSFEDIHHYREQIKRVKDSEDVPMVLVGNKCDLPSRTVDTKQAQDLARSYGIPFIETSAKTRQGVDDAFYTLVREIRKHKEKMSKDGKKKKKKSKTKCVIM
Chain of KRAS G12D (P01116 1-188 isoform P01116-2 G12D): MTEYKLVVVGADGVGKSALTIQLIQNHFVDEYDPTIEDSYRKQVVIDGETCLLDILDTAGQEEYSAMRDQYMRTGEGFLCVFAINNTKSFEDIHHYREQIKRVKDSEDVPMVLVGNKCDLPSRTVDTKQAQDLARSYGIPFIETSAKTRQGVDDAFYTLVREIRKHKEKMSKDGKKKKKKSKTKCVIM

Regarding `Cc1cc2c(-n3cncn3)nc3c(F)c(-c4cc(O)cc5ccc(F)cc45)c(CCC#N)cc3c2n1[C@H]1[C@H]2CN[C@@H]1C2` [Example 26, 3-(1-((1R,4R,5S)-2-Azabicyclo[2.1.1]hexan-5-yl)-6-fluoro-7-(7-fluoro-3-hydroxynaphthalen-1-yl)-2-methyl-4-(1H-1,2,4-triazol-1-yl)-1H-pyrrolo[3,2-c]quinolin-8-yl)propanenitrile], the IC50 at KRAS G12V mutant and on KRAS G12D was less than 100 nM throughout. For the same molecule, the Caco-2 result with Caco-2 cells (Table 3) is on record as “+ (a Caco-2 value of 50.5)”.

`Cc1cc2c(O[C@@H](C)[C@@H]3CCCN3C)nc3c(F)c(-c4cccc5ccc(F)cc45)c(CCC#N)cc3c2n1[C@H]1[C@H]2CN[C@@H]1C2` [Example 27, 3-(1-((1R,4R,5S)-2-Azabicyclo[2.1.1]hexan-5-yl)-6-fluoro-7-(7-fluoronaphthalen-1-yl)-2-methyl-4-((S)-1-((S)-1-methylpyrrolidin-2-yl)ethoxy)-1H-pyrrolo[3,2-c]quinolin-8-yl)propanenitrile]: the IC50 on KRAS G12V mutant and on KRAS G12D was less than 100 nM in each case. The Caco-2 result in the data set on Caco-2 cells (Table 3) is given as “+ (a Caco-2 value of 50.5)”.

As for `CN(C)C(=O)N1CCC[C@@H]1c1cc2c(-n3cncn3)nc3c(F)c(-c4cccc(Cl)c4Cl)c(CCC#N)cc3c2n1[C@H]1[C@H]2CN[C@@H]1C2` [Example 28, (2R)-2-(1-((1R,4R,5S)-2-azabicyclo[2.1.1]hexan-5-yl)-8-(2-cyanoethyl)-7-(2,3-dichlorophenyl)-6-fluoro-4-(1H-1,2,4-triazol-1-yl)-1H-pyrrolo[3,2-c]quinolin-2-yl)-N,N-dimethylpyrrolidine-1-carboxamide], the IC50 was 100 to 1000 nM on KRAS G12V mutant and less than 100 nM on KRAS G12D. Moreover, the Caco-2 entry in the data set on Caco-2 cells (Table 4) is reported as “+++ (a Caco-2 value of >1)”.

Consider `COC(=O)N1CCC[C@@H]1c1cc2c(-n3cncn3)nc3c(F)c(-c4cccc(C)c4Cl)c(CCC#N)cc3c2n1[C@H]1[C@H]2CN[C@@H]1C2` [Example 29, Methyl (2R)-2-(1-((1R,4R,5S)-2-azabicyclo[2.1.1]hexan-5-yl)-7-(2-chloro-3-methylphenyl)-8-(2-cyanoethyl)-6-fluoro-4-(1H-1,2,4-triazol-1-yl)-1H-pyrrolo[3,2-c]quinolin-2-yl)pyrrolidine-1-carboxylate], for which the IC50 at KRAS G12V mutant and on KRAS G12D was less than 100 nM in each case. Further, the Caco-2 result with Caco-2 cells (Table 4) is recorded as “+++ (a Caco-2 value of >1)”.

On to `COC(=O)N1[C@@H](c2cc3c(-c4ccc(C(=O)N(C)C)nc4)nc4c(F)c(-c5cccc(Cl)c5Cl)c(CCC#N)cc4c3n2[C@H]2[C@H]3CN[C@@H]2C3)C[C@@H]2C[C@@H]21` [Example 30, Methyl (1S,3R,5S)-3-(1-((1R,4R,5S)-2-azabicyclo[2.1.1]hexan-5-yl)-8-(2-cyanoethyl)-7-(2,3-dichlorophenyl)-4-(6-(dimethylcarbamoyl)pyridin-3-yl)-6-fluoro-1H-pyrrolo[3,2-c]quinolin-2-yl)-2-azabicyclo[3.1.0]hexane-2-carboxylate], for which the IC50 on KRAS G12V mutant and at KRAS G12D was less than 100 nM throughout. The Caco-2 result in the data set on Caco-2 cells (Table 4) is “+++ (a Caco-2 value of >1)”.

In the case of `COC(=O)N1CCC[C@@H]1c1cc2c(-c3ccc(C(=O)N(C)C)nc3)nc3c(F)c(-c4cccc(Cl)c4Cl)c(CCC#N)cc3c2n1[C@H]1[C@H]2CN[C@@H]1C2` [Example 32, Methyl (2R)-2-(1-((1R,4R,5S)-2-azabicyclo[2.1.1]hexan-5-yl)-8-(2-cyanoethyl)-7-(2,3-dichlorophenyl)-4-(6-(dimethylcarbamoyl)pyridin-3-yl)-6-fluoro-1H-pyrrolo[3,2-c]quinolin-2-yl)pyrrolidine-1-carboxylate], the IC50 on KRAS G12V mutant and on KRAS G12D was less than 100 nM throughout. In addition, the Caco-2 result in the data set on Caco-2 cells (Table 4) is “++ (a Caco-2 value of >0.5 but ≤1)”.

As to `CNC(=O)c1ccc(-c2nc3c(F)c(-c4cccc(Cl)c4Cl)c(CCC#N)cc3c3c2cc([C@H]2CCCN2C(=O)OC)n3[C@H]2[C@H]3CN[C@@H]2C3)cn1` [Example 33, Methyl (2R)-2-(1-((1R,4R,5S)-2-azabicyclo[2.1.1]hexan-5-yl)-8-(2-cyanoethyl)-7-(2,3-dichlorophenyl)-6-fluoro-4-(6-(methylcarbamoyl)pyridin-3-yl)-1H-pyrrolo[3,2-c]quinolin-2-yl)pyrrolidine-1-carboxylate], the IC50 on KRAS G12V mutant and on KRAS G12D was less than 100 nM throughout. Besides, the Caco-2 result in the data set on Caco-2 cells (Table 4) is given as “++ (a Caco-2 value of >0.5 but ≤1)”.

`Cc1nc2c(F)c(-c3cccc(F)c3Cl)c(CCC#N)cc2c2c1cc([C@H]1CCCN1C(=O)C1CC1)n2[C@H]1[C@H]2CN[C@@H]1C2` [Example 34, 3-(1-((1R,4R,5S)-2-Azabicyclo[2.1.1]hexan-5-yl)-7-(2-chloro-3-fluorophenyl)-2-((R)-1-(cyclopropanecarbonyl)pyrrolidin-2-yl)-6-fluoro-4-methyl-1H-pyrrolo[3,2-c]quinolin-8-yl)propanenitrile]: the IC50 is 100 to 1000 nM on KRAS G12V mutant and less than 100 nM on KRAS G12D. Further, in the data set on Caco-2 cells (Table 4), the Caco-2 entry is “+ (a Caco-2 value of 50.5)”.

In the case of `C[C@H](c1cc2c(-c3ccc(C(C)(C)O)nc3)nc3c(F)c(-c4cccc5ccc(F)cc45)c(CCC#N)cc3c2n1[C@H]1[C@H]2CN[C@@H]1C2)n1ccncc1=O` [Example 37, 3-(1-((1R,4R,5S)-2-Azabicyclo[2.1.1]hexan-5-yl)-6-fluoro-7-(7-fluoronaphthalen-1-yl)-4-(6-(2-hydroxypropan-2-yl)pyridin-3-yl)-2-((R)-1-(2-oxopyrazin-1(2H)-yl)ethyl)-1H-pyrrolo[3,2-c]quinolin-8-yl)propanenitrile], the IC50 at KRAS G12V mutant and on KRAS G12D was less than 100 nM in each case. Moreover, the Caco-2 result in the data set with Caco-2 cells (Table 4) is given as “+++ (a Caco-2 value of >1)”.

Regarding `CNC(=O)c1ncc(-c2nc3c(F)c(-c4cccc(Cl)c4Cl)c(CCC#N)cc3c3c2cc([C@H]2CCCN2C(=O)OC)n3[C@H]2[C@H]3CN[C@@H]2C3)cc1F` [Example 39, Methyl (2R)-2-(1-((1R,4R,5S)-2-azabicyclo[2.1.1]hexan-5-yl)-8-(2-cyanoethyl)-7-(2,3-dichlorophenyl)-6-fluoro-4-(5-fluoro-6-(methylcarbamoyl)pyridin-3-yl)-1H-pyrrolo[3,2-c]quinolin-2-yl)pyrrolidine-1-carboxylate], the IC50 at KRAS G12V mutant and at KRAS G12D was less than 100 nM each time. For the same molecule, the Caco-2 entry in the data set with Caco-2 cells (Table 4) was “++ (a Caco-2 value of >0.5 but ≤1)”.

Take `COC(=O)N1CCC[C@@H]1c1cc2c(-c3ccc(C(C)(C)O)nc3)nc3c(F)c(-c4cccc(Cl)c4Cl)c(CCC#N)cc3c2n1[C@H]1[C@H]2CN[C@@H]1C2` [Example 40, Methyl (2R)-2-(1-((1R,4R,5S)-2-azabicyclo[2.1.1]hexan-5-yl)-8-(2-cyanoethyl)-7-(2,3-dichlorophenyl)-6-fluoro-4-(6-(2-hydroxypropan-2-yl)pyridin-3-yl)-1H-pyrrolo[3,2-c]quinolin-2-yl)pyrrolidine-1-carboxylate]: the IC50 at KRAS G12V mutant and at KRAS G12D was less than 100 nM each time. Besides, the Caco-2 entry in the data set with Caco-2 cells (Table 4) was “++ (a Caco-2 value of >0.5 but ≤1)”.

Take `CCOC(=O)N1CCC[C@@H]1c1cc2c(-c3ccc(C(C)(C)O)nc3)nc3c(F)c(-c4cccc(Cl)c4Cl)c(CCC#N)cc3c2n1[C@H]1[C@H]2CN[C@@H]1C2` [Example 41, Ethyl (2R)-2-(1-((1R,4R,5S)-2-azabicyclo[2.1.1]hexan-5-yl)-8-(2-cyanoethyl)-7-(2,3-dichlorophenyl)-6-fluoro-4-(6-(2-hydroxypropan-2-yl)pyridin-3-yl)-1H-pyrrolo[3,2-c]quinolin-2-yl)pyrrolidine-1-carboxylate]: the IC50 on KRAS G12V mutant and at KRAS G12D was less than 100 nM each time. Further, the Caco-2 result in the data set with Caco-2 cells (Table 4) is “+++ (a Caco-2 value of >1)”.
